Measured values reported in PMC9076587 (RSC Advances, 2019).
Entries after “also recorded” stand apart in the source; their conditions may differ.

What was measured:
Assay type in all cases: cell-based
MCF-7 cells = test: MTT anti-proliferative assay, MCF-7; conditions: Homo sapiens, MCF7, read-out: IC50 MCF-7
MDA-MB-231 cells = test: MTT anti-proliferative assay, MDA-MB-231; conditions: for IC50: Homo sapiens, MDA-MB-231, read-out: IC50 MDA-MB-231; for selectivity between cell lines (in words): MDA-MB-231 versus MCF-7
HEK-293 cells = test: Cytotoxicity against non-tumorigenic HEK-293 cells; conditions: for IC50: Homo sapiens, HEK293, read-out: IC50 value in HEK293 cells

IC50 (MCF-7 cells) [µM] | IC50 (MDA-MB-231 cells) [µM] | SMILES | cytotoxicity against HEK-293 cells (in words) (HEK-293 cells) | IC50 (HEK-293 cells) [µM] | selectivity between cell lines (in words) (MDA-MB-231 cells)
> 100 | > 100 | O=C1N(Cc2cn(CC/C(=C(\c3ccccc3)c3ccc(OCCO)cc3)c3ccccc3)nn2)c2ccc(F)cc2C12OCCO2 [15c] | – | – | –
> 100 | > 100 | O=C1C(=O)N(Cc2cn(CC/C(=C(\c3ccccc3)c3ccc(OCCO)cc3)c3ccccc3)nn2)c2ccccc21 [14a] | – | – | –
70.7 | 70.7 | O=C1C(=O)N(Cc2cn(CC/C(=C(\c3ccccc3)c3ccc(OCCO)cc3)c3ccccc3)nn2)c2ccc(F)cc21 [14c] | – | – | –
33.1 | 18.1 | O=C1C(=O)N(Cc2cn(CC/C(=C(\c3ccccc3)c3ccc(OCCO)cc3)c3ccccc3)nn2)c2ccc(Cl)cc21 [14b] | – | – | selective for the estrogen-independent MDA-MB-231 cells
> 100 | > 100 | O=C1N(Cc2cn(CC/C(=C(\c3ccccc3)c3ccc(OCCO)cc3)c3ccccc3)nn2)c2ccc(Br)cc2C12OCCO2 [15d] | – | – | –
> 100 | > 100 | O=C1N(Cc2cn(CC/C(=C(\c3ccccc3)c3ccc(OCCO)cc3)c3ccccc3)nn2)c2ccc(Cl)cc2C12OCCO2 [15b] | – | – | –
> 100 | > 100 | O=C1C(=O)N(Cc2cn(CC/C(=C(\c3ccccc3)c3ccc(OCCO)cc3)c3ccccc3)nn2)c2ccc(Br)cc21 [14d] | – | – | –

The next lines start with the compound.

SMILES | IC50 (MCF-7 cells) [µM] | IC50 (MDA-MB-231 cells) [µM] | cytotoxicity against HEK-293 cells (in words) (HEK-293 cells) | IC50 (HEK-293 cells) [µM] | selectivity between cell lines (in words) (MDA-MB-231 cells)
COc1ccc(/C(=C(/CCn2cc(CN3C(=O)C4(OCCO4)c4cc(Cl)ccc43)nn2)c2ccccc2)c2ccccc2)cc1 [13a] | 21 | 20.4 | moderately cytotoxic | 43.9 | –
CC1=CC(=O)c2c(O)cccc2C1=O [Plumbagin, reference compound] | 3.5 | 4.4 | – | – | –
O=C1C(=O)N(Cc2cn(CC/C(=C(\c3ccccc3)c3ccc(OCCO)cc3)c3ccccc3)nn2)c2c(Br)cc(Br)cc21 [14e] | 31.6 | 19.2 | non-cytotoxic | > 100 | selective for the estrogen-independent MDA-MB-231 cells; also recorded: more selective towards the ER-cells
COc1ccc(/C(=C(/CCn2cc(CN3C(=O)C(=O)c4cc(Br)cc(Br)c43)nn2)c2ccccc2)c2ccccc2)cc1 [12c] | 13.1 | 14.8 | moderately cytotoxic | 21.6 | –
COc1ccc(/C(=C(/CCn2cc(CN3C(=O)C(=O)c4cc(Br)ccc43)nn2)c2ccccc2)c2ccccc2)cc1 [12b] | > 100 | 75.9 | – | – | selective against MDA-MB-231 cells
OCCOc1ccc(/C(=C(/CCCl)c2ccccc2)c2ccccc2)cc1 [OSP, Ospemifene, reference compound] | 55 | > 100 | – | – | –
